Here are results for one molecule from article PMC6201084 (Antimicrobial Agents and Chemotherapy, 2018).

In test [1] the target is neuraminidase (NA) of influenza B/Perth/136/2015 (MUT-Y273, H273Y NA substitution) (Influenza B virus, UniProt A0A1S5RAG6, H273Y). It is filed as biochemical.
Test [2] deals with neuraminidase (NA) of influenza B/Singapore/GP702/2015 (MUT-N197, D197N NA substitution) (Influenza B virus, UniProt A0A1S5RAG6, D197N). Type of test: biochemical.

“And” between values parts separate entries of the source, which are not always exact repeats. Equal values may be shown once.

What is called IC50 is the concentration at which inhibition is half-maximal. `CCC(CC)[C@H](NC(C)=O)[C@@H]1[C@H](O)[C@@H](C(=O)O)C[C@H]1N=C(N)N` [Peramivir, peramivir]: the “Fold difference in IC50 from corresponding wild-type value” in test [1] is 85 fold and 80.9 ± 6.8 (85)^b fold; in test [2], 3.0 ± 0.7 (3) fold. Besides, the IC50 in test [1] (read-out: IC50 (nM), mean ± SD) is 80.9 nM; in test [2] (read-out: IC50 (nM), mean ± SD), 3 nM.
